{
  "source": "patent US20260364072A1",
  "about": "“METHODS FOR PROMOTING EXPANSION OF HUMAN CD34+ CELLS IN VIVO AND FOR PROMOTING NEURAL REGENERATION” (THE REGENTS OF THE UNIVERSITY OF CALIFORNIA, priority 2023, published 2026)",
  "key": {"phospho-STAT3": {"system": "phospho-STAT3", "experiment": "phospho-STAT3 intracellular flow cytometry", "format": "cell-based, human", "description": "(§1) Flow cytometry for stem and progenitor cell surface antibody staining was performed as previously described.^14 For phospho-flow, a subset of samples was fixed and permeabilized, then blocked and stained with APC-conjugated ADAR1p150 antibody (cat ab269444, 1:25) and pSTAT3 APC (cat 17-9033-42, 1:10) (Table S2). Fractions were analyzed with the BD LSR FORTESSA™ (Sanford Consortium for Regenerative Medicine Stem Cell Core) and FLOWJO™ software (TreeStar, Ashland, OR)."}, "ADAR1": {"system": "ADAR1", "experiment": "ADAR1 expression by qRT-PCR in TF1a cells", "format": "cell-based, human", "conditions": "TF1a AML cell line; 0.1 μM, 4 hours", "excerpt": "For lentivirus-mediated knockdown of human ADAR1 in ADAR1 activation and RNA editing biomarker studies of the nanoluc-GFP reporter and endogenous transcripts, human leukemia cells were stably transduced with the lentiviral shRNA vectors targeting ADAR1 (shADAR1) or scrambled control (shCtrl) to ablate endogenous ADAR1 expression. The shRNA plasmids targeting ADAR1 (shADAR1) as well as the scrambled control (shCtrl) were purchased from VectorBuilder (Chicago, IL) (shCtrl: […] (SEQ ID NO:3) and shADAR1: […]) (SEQ ID NO:4). […] Viral titers were assessed by qRT-PCR and transduction efficiency was tested in 293T cells. […]\nFor quantitative analysis of splice isoform expression, RNA editing rates, and whole gene expression by qRT-PCR, cells or tissue fragments were harvested in RNA lysis buffer and total RNA was extracted using RNeasy mini or micro extraction kits (QIAGEN, Germantown, MD) following the manufacturer's protocol including a DNase incubation step to digest any trace genomic DNA present. Levels of ADAR1 variants and LSC-specific transcripts were quantified by qRT-PCR as previously described.^14 RNA-editing site-specific qRT-PCR (RESSqPCR) was performed for variants in AZIN1 transcripts.^53 Additional species-specific primers were also designed to quantify intron retention rates in cells treated with Rebecsinib as a biomarker of response to RNA splicing modulation. […]"}, "ADAR1p150": {"system": "ADAR1p150", "experiment": "ADAR1p150 protein by intracellular flow cytometry in sAML50261 engrafted mice", "format": "in vivo, human cells in mice", "conditions": "human HSC and HPC, spleens of sAML50261 engrafted mice, vs vehicle", "description": "FIG. 30D illustrates a mean fluorescence intensity (MFI) of ADAR1p150 protein levels in human HSCs (CD45^+CD34^+CD38^−Lin^−) and HPCs (CD45^+CD34^+CD38^+Lin^−) from the spleens of sAML50261 engrafted mice treated with Rebecsinib or vehicle;\nas §1\nIn humanized mouse models, sAML cells (CD34^+) from two unique […] patient samples that were splicing factor mutated or unmutated were utilized, including sAML50261 and sAML2008-5.^14 For in vivo efficacy and therapeutic index studies, sAML CD34^+ cells, or normal human cord blood-derived or aged bone marrow-derived HSPCs (CD34^+), were transplanted (50,000-200,000 cells per mouse) intrahepatically into neonatal Rag2^−/−γc^−/− mice, or intravenously into adult NSG-SGM3 mice (Jackson Laboratories, Bar Harbor, ME). A subset of experiments was performed with normal aged bone marrow cells that were transduced with the lentiviral ADAR1 nanoluc-GFP reporter vector prior to transplant. […]"}, "MDA-MB-231 cells": {"system": "MDA-MB-231 cells", "experiment": "IVIS total flux in MDA-MB-231 transplanted mice", "format": "in vivo, human cells in Rag2 neonatal mice", "conditions": "0 day after completing the dosing plan; compared to vehicle control", "excerpt": "FIG. 5 graphically illustrates IVIS (In Vivo Imaging System) results of ADAR1-MDA-MB-231 transplanted Rag2 mouse models, and IVIS images were taken at 6 weeks after transplant (FIG. 5A), after two weeks of therapy (FIG. 5B), and one week after therapy was completed (FIG. 5C), as discussed in further detail in Example 5, below.\nTen thousand (10k) MDA-MB-231 cells were intrahepatically transplanted into Rag2 neonatal mice, then treated with fedratinib, rebecsinib, or a combination of fedratinib and rebecsinib. IVIS images were taken at 6 weeks after transplant (FIG. 5A), after two weeks of therapy (FIG. 5B), and one week after therapy was completed (FIG. 5C). The IVIS signals from the mice were graphed by groups.\nThe IVIS images of these mice were taken at 0 day after completing the dosing plan and are graphed by their total flux."}},
  "data": [
    {"smiles": "CC[C@H](OC)[C@@H](C)[C@H]1O[C@@H]1[C@@H](O)[C@H](C)/C=C/C=C(\\C)[C@H]1OC(=O)C[C@H](O)CC[C@@](C)(O)[C@@H](OC(C)=O)/C=C/[C@@H]1C", "note": "[Rebecsinib]", "values": [
      {"measurement": "phospho-STAT3 expression", "setting": "phospho-STAT3", "value": "reduced phospho-STAT3 expression"},
      {"measurement": "ADAR1 expression as measured by qRT-PCR", "setting": "ADAR1", "value": "reduced ADAR1 expression"},
      {"measurement": "ADAR1p150 protein isoform levels", "setting": "ADAR1p150", "value": "significantly decreased ADAR1p150 protein isoform levels"},
      {"measurement": "total flux (IVIS)", "setting": "MDA-MB-231 cells", "value": "significantly decreased"}
    ]}
  ]
}
